Results on twelve compounds are retold here after ChEMBL document CHEMBL5131441, “De-novo designed β-lysine derivatives can both augment and diminish the proliferation rates of E. coli through the action of Elongation Factor P” (Bioorg Med Chem Lett, 2022).

Active and inactive are the calls of the source. The calls are words filed in the database; no cut-off is given here.

Data set [1] relates to Escherichia coli. Briefly: Antibacterial activity against Escherichia coli K12 harbouring elongation factor P deltapoxA variant assessed as reduction in bacterial growth at 500 uM incubated for 240 mins by turbidity based analysis. It is filed as functional, organism-based.
In data set [2] the test system is Escherichia coli. As to the kind of experiment: Antibacterial activity against Escherichia coli K12 harbouring elongation factor P deltayjeK variant assessed as reduction in bacterial growth at 500 uM incubated for 240 mins by turbidity based analysis. The format is functional, organism-based.
Data set [3] has as its system Escherichia coli. As to the kind of experiment: Antibacterial activity against Escherichia coli K12 harbouring wild type elongation factor P at 500 uM incubated for 240 mins by turbidity based analysis. The format is functional, organism-based.
The test system of data set [4] is Escherichia coli. Briefly: Antibacterial activity against Escherichia coli K12 harbouring elongation factor P delta-efp variant assessed as reduction in bacterial growth at 500 uM incubated for 240 mins by turbidity based analysis. The format is functional, organism-based.
The nature of data set [5]: Cytotoxicity against HEK293 cells assessed as cell survival rate at 50 uM relative to control. The note with it: human, read-out: Survival. It is filed as toxicity, cell-based.
Data set [6] is described as follows: Cytotoxicity against HEK293 cells assessed as inhibition of cell growth. The format is toxicity, cell-based. The note with it: human.
In data set [7] the test system is Escherichia coli. As to the kind of experiment: Antibacterial activity against Escherichia coli K12 harbouring elongation factor P deltayjeK variant assessed as restoration in bacterial growth at 500 uM incubated for 240 mins in presence of gentamicin by turbidity based analysis. The format is functional, organism-based.
A short description of data set [8]: Cytotoxicity against HEK293 cells assessed as cell survival rate at 500 uM relative to control. It is filed as toxicity, cell-based. The note with it: human, read-out: Survival.
The subject of data set [9] is Escherichia coli. As to the kind of experiment: Antibacterial activity against Escherichia coli K12 harbouring elongation factor P deltayjeK variant assessed as reduction in bacterial growth incubated for 240 mins by turbidity based analysis. It is filed as functional, organism-based.

On to `NCCCCCCCCCCCCNCCCC(N)CC(=O)O` (racemic), for which the outcome in [1], in [2], in [3] and in [4] was Active. The viability at 50 µM in data set [5] was found to be 14%.
As for `CCCCCCNCCCC(N)CC(=O)O` (racemic), the IC50 in data set [6] stood at 110 µM. In addition, in [7], the outcome was Active.
As to `NCCCCCCCCCCNCCCC(N)CC(=O)O` (racemic), in data set [6], the IC50 came out at 250 µM. Besides, the outcome in [2] and in data set [3] was Active. Moreover, the viability at 50 µM in [5] is 81%. For the same compound, the viability at 500 µM in data set [8] is 0%.
As to `CC(=O)NCCCC(N)CC(=O)O` (racemic), the outcome in data set [7] was Active.
Same read-out and setting: the result for `CCCNCCCC(N)CC(=O)O` (racemic) reads “Active”; that for `CCNCCCC(N)CC(=O)O` (racemic), “Active”.
The same measure, in the same setting: as for `CNCCCC(N)CC(=O)O` (racemic), the entry is “Active”.
On to `NC(CCCNCc1ccccc1)CC(=O)O` (racemic), for which the outcome in data set [7] was Active.
As to `NCCCCC(N)CC(=O)O` (racemic), in data set [2], the outcome was Active.
Consider `NCCCCCCCCCCCNCCCC(N)CC(=O)O` (racemic), for which the outcome in data set [3] was Active.
Regarding `NCCCCCCCCNCCCC(N)CC(=O)O` (racemic), the outcome in data set [7] was Active.
Regarding GENTAMICIN, the outcome in data set [2] was Active. Moreover, the MIC in data set [9] is 6 µg/mL.
